Measured values: the supplement of paper PMC4862054

What was measured:
Conditions in all cases: incubation time: 72 h
[1] = test system: CAL-148; assay: drug sensitivity score (DSS), CellTiter-Glo (DSS (AUC-based score)); higher = stronger drug effect (viability inhibition or cytotoxicity); extreme values may be limits of the assay
Outline: (§1)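 Each compound occupied 5 concentrations in 10-fold steps over its own 10,000-fold range in 384-well plates, into which breast cancer cell lines were seeded as 20 µl suspension. Following 72 h of incubation, CellTox Green fluorescence (485/520 nm) was measured, and CellTiter-Glo luminescence was measured after 10 min at room temperature. Plates were individually normalised to 0.1 % DMSO and a positive kill control. From the area under the fitted dose-response curve, a drug sensitivity score was calculated.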

[2] = test system: HCC1599; assay: as above
Outline: as §1

[3] = test system: CAL-120; assay: drug sensitivity score (DSS), CellTiter-Blue viability (DSS (AUC-based score)); higher = stronger viability inhibition; extreme values may be limits of the assay
Procedure: (§2)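 DSRT with the CellTiter-Blue (resazurin reduction) viability readout, fluorescence 560/590 nm, 72 h incubation. Plates were normalised to DMSO and benzethonium chloride controls. DSS is computed from the area under the fitted dose-response curve (5 or 9 concentrations).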

[4] = test system: MDA-MB-453; assay: as above
Procedure: as §2

[5] = test system: MDA-MB-468; assay: as above
Procedure: as §2

[6] = test system: HDQ-P1; assay: as above
Procedure: as §2

[7] = test system: DU-4475; assay: as above
Procedure: as §2

[8] = test system: CAL-85-1; assay: as above
Procedure: as §2

[9] = test system: BT-474; assay: as above
Procedure: as §2

[10] = test system: Hs578T; assay: as above
Procedure: as §2

[11] = test system: BT-549; assay: as above
Procedure: as §2

[12] = test system: HCC1937; assay: as above
Procedure: as §2

[13] = test system: MDA-MB-231; assay: as above
Procedure: as §2

[14] = test system: MFM-223; assay: as above
Procedure: as §2

[15] = test system: CAL-148; assay: as above
Procedure: as §2

[16] = test system: MDA-MB-436; assay: as above
Procedure: as §2

[17] = test system: SK-BR-3; assay: as above
Procedure: as §2

[18] = test system: HCC1143; assay: as above
Procedure: as §2

[19] = test system: CAL-51; assay: as above
Procedure: as §2

[20] = test system: HCC1599; assay: as above
Procedure: as §2

SMILES	drug sensitivity score [1]	drug sensitivity score [2]	drug sensitivity score [3]	drug sensitivity score [4]	drug sensitivity score [5]	drug sensitivity score [6]	drug sensitivity score [7]	drug sensitivity score [8]	drug sensitivity score [9]	drug sensitivity score [10]	drug sensitivity score [11]	drug sensitivity score [12]	drug sensitivity score [13]	drug sensitivity score [14]	drug sensitivity score [15]	drug sensitivity score [16]	drug sensitivity score [17]	drug sensitivity score [18]	drug sensitivity score [19]	drug sensitivity score [20]
O=P1(NCCCl)OCCCN1CCCl (stereo not given) [Ifosfamide]	0	0	0	0	0	0	0	0	0	0	0	0	0	0	0	0	0	0	0	0
Clc1ccc(Nc2nnc(Cc3ccncc3)c3ccccc23)cc1 [Vatalanib]	0	0	0	0	0	0	0	0	0	0	0	0	0	0	0	0	0	0	0	0
Cc1ccc(C(=O)Nc2ccc(CN3CCN(C)CC3)c(C(F)(F)F)c2)cc1C#Cc1cnc2cccnn12 [Ponatinib]	–	–	7.25	5.67	0	4.79	0	0	0	0.512	0.903	0	7.46	14.6	0.922	0	0	0	3.79	2.44
N[C@@H](CSC(c1ccccc1)(c1ccccc1)c1ccccc1)C(=O)O [S-trityl-L-cysteine]	0	0	10.4	0	12	0	0	0	4.93	12.9	2.15	16.4	14.7	0	0	4.31	15.5	1.21	0	0
NC(=O)Nc1cc(-c2cccc(F)c2)sc1C(=O)N[C@H]1CCCNC1 [AZD 7762]	–	–	2.17	5.94	2.52	3.34	2.46	6.01	0	5.73	1.54	2.04	1.83	0	2.2	5.44	4.87	1.6	2.84	5.69
C=C(c1ccc(C(=O)O)cc1)c1cc2c(cc1C)C(C)(C)CCC2(C)C [Bexarotene]	0	9	0	0	0	0	0	0	0	0	0	2.11	0	0	1.2	0	0	0	0	0
C[C@]12CC[C@@H]3c4ccc(O)cc4C[C@@H](CCCCCCCCC[S+]([O-])CCCC(F)(F)C(F)(F)F)[C@H]3[C@@H]1CC[C@@H]2O (stereo not given in full) [Fulvestrant]	0	0	0	0	0	0	0	0	0	0	0	0	0	1.05	0	0	0	0	0	0
NCC(=O)CCC(=O)O [Aminolevulinic acid]	–	–	0	0	0	0	0	0	0	0	0	0	0	0	0	0	0	0	0	0
CN[C@@H]1C[C@H]2O[C@@](C)([C@@H]1OC)n1c3ccccc3c3c4c(c5c6ccccc6n2c5c31)C(=O)N[C@H]4O [UCN-01]	8.79	27.9	24.2	18.2	22.4	19.9	19.5	17.3	12.2	29.2	22.4	20	24.5	14.7	7	12.4	23	22.2	20.4	17
CC(=O)Nc1ccc(C(=O)Nc2ccccc2N)cc1 [CI-994]	–	–	0	0	0	0	0	0	0	0	0	0	0	0	0	0	0	0	0	0
CO[C@H]1/C=C\C=C(/C)C(=O)NC2=CC(=O)C(NCCN(C)C)=C(C[C@@H](C)C[C@H](OC)[C@H](O)[C@@H](C)/C=C(\C)[C@@H]1OC(N)=O)C2=O [Alvespimycin]	13.3	4.92	15.3	22.6	10.4	13.8	21.9	13.7	14.6	16.5	20	17.2	12.2	18.7	16.9	16.1	20.9	11.5	14	10.5
CCN(CCCOc1ccc2c(Nc3cc(CC(=O)Nc4cccc(F)c4)[nH]n3)ncnc2c1)CCOP(=O)(O)O [Barasertib]	–	–	8.21	11.8	12.1	0	4.75	4.42	0	7.48	5.75	9.75	3.7	0	20.5	0	0	0	8.86	0
Cc1ccc(-n2nc(C(C)(C)C)cc2NC(=O)Nc2ccc(OCCN3CCOCC3)c3ccccc23)cc1 [Doramapimod]	0	0	0	0	0	0	0	6.15	0	0	0	0	0	0	0	0	0	0	0	0
COc1cc([C@@H]2c3cc4c(cc3[C@@H](O[C@@H]3O[C@@H]5CO[C@@H](C)O[C@H]5[C@H](O)[C@H]3O)[C@H]3COC(=O)[C@H]23)OCO4)cc(OC)c1O [Etoposide]	7.19	9.75	4.94	0	6.16	3.32	19.8	2.33	0.298	5.23	11	6.25	3.4	0	10.3	3.41	11.9	7.4	14.5	2.06
CCC1=C[C@@H]2CN(C1)Cc1c([nH]c3ccccc13)[C@@](C(=O)OC)(c1cc3c(cc1OC)N(C)[C@H]1[C@@](O)(C(=O)OC)[C@H](OC(C)=O)[C@]4(CC)C=CCN5CC[C@]31[C@@H]54)C2 [Vinorelbine]	17.1	18.8	24.4	26.1	18.2	16.5	15.8	20.9	16.1	24.6	25.6	25.3	22.8	18.4	22.5	16.5	26	16.8	19.6	9.76
COc1cc2nccc(Oc3ccc(NC(=O)C4(C(=O)Nc5ccc(F)cc5)CC4)cc3)c2cc1OC [Cabozantinib]	0	0	0	1.25	0	0	0	0	0	0	0	0	0	0	0.402	0	0	0	0	0
CN(N=O)C(=O)N[C@@H](C=O)[C@@H](O)[C@H](O)[C@H](O)CO [Streptozocin]	0	0	0	0	0	0	0	0	0	0	0	3.78	0	0	0	0	0	0	0	0
C[C@@H](Oc1cc(-c2cnn(C3CCNCC3)c2)cnc1N)c1c(Cl)ccc(F)c1Cl [Crizotinib]	0	0	6.42	8.6	4.88	1.42	3.43	3.39	5.02	1.65	1.89	6.92	9.17	4.74	2.67	14.8	4.22	2.03	4.08	0
